Data: patent publication US12577245B2, “Sulfonyl benzamide derivatives as Bcl-2 inhibitors” (ASCENTAGE PHARMA (SUZHOU) CO., LTD., priority 2021, dated 2026)

These compounds were tested against Bcl-2 G101V (Homo sapiens, UniProt P10415, G101V) (assay: Bcl-2 G101V inhibition, fluorescence polarization (Flu-BIM tracer) binding assay). Conditions: FP; 20 nM Bcl2, 5 nM Flu-BIM, 1 h incubation; read-out: Bcl-2 G101V (FP).

CC1(C)CCC(CN2CCN(c3ccc(C(=O)NS(=O)(=O)c4ccc(NC[C@H]5COCCO5)c([N+](=O)[O-])c4)c(Oc4cnc5[nH]ccc5c4)c3)CC2)=C(c2cc(CN3CCOCC3)cs2)C1 [Example 22, (S)—N-((4-(((1,4-dioxan-2-yl)methyl)amino)-3-nitrophenyl)sulfonyl)-2-((1H-pyrrolo[2,3-b]pyridin-5-yl)oxy)-4-(4-((4,4-dimethyl-2-(4-(morpholinomethyl)thiophen-2-yl)cyclohex-1-en-1-yl)methyl)piperazin-1-yl)benzamide] and CC1(C)CCC(CN2CCN(c3ccc(C(=O)NS(=O)(=O)c4ccc(NC[C@H]5COCCO5)c([N+](=O)[O-])c4)c(Oc4cnc5[nH]ccc5c4)c3)CC2)=C(c2cc(CN3CCC(N4CCOCC4)CC3)cs2)C1 [Example 28, (S)—N-((4-(((1,4-dioxan-2-yl)methyl)amino)-3-nitrophenyl)sulfonyl)-2-((1H-pyrrolo[2,3-b]pyridin-5-yl)oxy)-4-(4-((4,4-dimethyl-2-(4-((4-morpholinopiperidin-1-yl)methyl)thiophen-2-yl)cyclohex-1-en-1-yl)methyl)piperazin-1-yl)benzamide] are within 1.5-fold of each other in IC50: 42.8 nM for the first, 47 nM for the second.

CC1(C)CCC(CN2CCN(c3ccc(C(=O)NS(=O)(=O)c4ccc(NC[C@H]5CC[C@@](C)(O)CC5)c([N+](=O)[O-])c4)c(Oc4cnc5[nH]ccc5c4)c3)CC2)=C(c2cc(CN3CCOCC3)cs2)C1 [Example 23, 2-((1H-pyrrolo[2,3-b]pyridin-5-yl)oxy)-4-(4-((4,4-dimethyl-2-(4-(morpholinomethyl)thiophen-2-yl)cyclohex-1-en-1-yl)methyl)piperazin-1-yl)-N-((4-((((1s,4s)-4-hydroxy-4-methylcyclohexyl)methyl)amino)-3-nitrophenyl)sulfonyl)benzamide] and CC1(C)CCC(CN2CCN(c3ccc(C(=O)NS(=O)(=O)c4ccc(NC[C@H]5CC[C@](C)(O)CC5)c([N+](=O)[O-])c4)c(Oc4cnc5[nH]ccc5c4)c3)CC2)=C(c2cc(CN3CCOCC3)cs2)C1 [Example 24, 2-((1H-pyrrolo[2,3-b]pyridin-5-yl)oxy)-4-(4-((4,4-dimethyl-2-(4-(morpholinomethyl)thiophen-2-yl)cyclohex-1-en-1-yl)methyl)piperazin-1-yl)-N-((4-((((1r,4r)-4-hydroxy-4-methylcyclohexyl)methyl)amino)-3-nitrophenyl)sulfonyl)benzamide] are within 1.5-fold of each other in IC50: 28.2 nM for the first, 30.1 nM for the second.

CC1(C)CCC(CN2CCN(c3ccc(C(=O)NS(=O)(=O)c4ccc(NCC5CCOCC5)c([N+](=O)[O-])c4)c(Oc4cnc5[nH]ccc5c4)c3)CC2)=C(c2ccsc2CN2CCOCC2)C1 [Example 25, 2-((1H-pyrrolo[2,3-b]pyridin-5-yl)oxy)-4-(4-((4,4-dimethyl-2-(2-(morpholinomethyl)thiophen-3-yl)cyclohex-1-en-1-yl)methyl)piperazin-1-yl)-N-((3-nitro-4-(((tetrahydro-2H-pyran-4-yl)methyl)amino)phenyl)sulfonyl)benzamide] and CC1(C)CCC(CN2CCN(c3ccc(C(=O)NS(=O)(=O)c4ccc(NCC5CCOCC5)c([N+](=O)[O-])c4)c(Oc4cnc5[nH]ccc5c4)c3)CC2)=C(c2ccc(CN3CCOCC3)s2)C1 [Example 26, 2-((1H-pyrrolo[2,3-b]pyridin-5-yl)oxy)-4-(4-((4,4-dimethyl-2-(5-(morpholinomethyl)thiophen-2-yl)cyclohex-1-en-1-yl)methyl)piperazin-1-yl)-N-((3-nitro-4-(((tetrahydro-2H-pyran-4-yl)methyl)amino)phenyl)sulfonyl)benzamide] are within 1.5-fold of each other in IC50: 39.1 nM for the first, 57.8 nM for the second.

Going from C[C@@H]1CN(Cc2csc(C3=C(CN4CCN(c5ccc(C(=O)NS(=O)(=O)c6ccc(NC[C@H]7COCCO7)c([N+](=O)[O-])c6)c(Oc6cnc7[nH]ccc7c6)c5)CC4)CCC(C)(C)C3)c2)C[C@H](C)N1C [Example 29, N-((4-((((S)-1,4-dioxan-2-yl)methyl)amino)-3-nitrophenyl)sulfonyl)-2-((1H-pyrrolo[2,3-b]pyridin-5-yl)oxy)-4-(4-((4,4-dimethyl-2-(4-(((3S,5R)-3,4,5-trimethylpiperazin-1-yl)methyl)thiophen-2-yl)cyclohex-1-en-1-yl)methyl)piperazin-1-yl)benzamide] to CC1(C)CCC(CN2CCN(c3ccc(C(=O)NS(=O)(=O)c4ccc(NC[C@H]5COCCO5)c([N+](=O)[O-])c4)c(Oc4cnc5[nH]ccc5c4)c3)CC2)=C(c2cc(CN3CCC(F)(F)CC3)cs2)C1 [Example 32, (S)—N-((4-(((1,4-dioxan-2-yl)methyl)amino)-3-nitrophenyl)sulfonyl)-2-((1H-pyrrolo[2,3-b]pyridin-5-yl)oxy)-4-(4-((2-(4-((4,4-difluoropiperidin-1-yl)methyl)thiophen-2-yl)-4,4-dimethylcyclohex-1-en-1-yl)methyl)piperazin-1-yl)benzamide], the IC50 falls from 71.3 nM to 25.7 nM (2.8-fold). The second is the more potent here.

CC1(C)CCC(CN2CCN(c3ccc(C(=O)NS(=O)(=O)c4ccc(NC[C@H]5COCCO5)c([N+](=O)[O-])c4)c(Oc4cnc5[nH]ccc5c4)c3)CC2)=C(c2cc(CN3CCN4CCOC[C@H]4C3)cs2)C1 [Example 30, N-((4-((((S)-1,4-dioxan-2-yl)methyl)amino)-3-nitrophenyl)sulfonyl)-2-((1H-pyrrolo[2,3-b]pyridin-5-yl)oxy)-4-(4-((2-(4-(((R)-hexahydropyrazino[2,1-c][1,4]oxazin-8(1H)-yl)methyl)thiophen-2-yl)-4,4-dimethylcyclohex-1-en-1-yl)methyl)piperazin-1-yl)benzamide] and CC1(C)CCC(CN2CCN(c3ccc(C(=O)NS(=O)(=O)c4ccc(NC[C@H]5COCCO5)c([N+](=O)[O-])c4)c(Oc4cnc5[nH]ccc5c4)c3)CC2)=C(c2cc(CN3CCN(C4COC4)CC3)cs2)C1 [Example 31, (S)—N-((4-(((1,4-dioxan-2-yl)methyl)amino)-3-nitrophenyl)sulfonyl)-2-((1H-pyrrolo[2,3-b]pyridin-5-yl)oxy)-4-(4-((4,4-dimethyl-2-(4-((4-(oxetan-3-yl)piperazin-1-yl)methyl)thiophen-2-yl)cyclohex-1-en-1-yl)methyl)piperazin-1-yl)benzamide] are within 1.5-fold of each other in IC50: 66 nM for the first, 59.2 nM for the second.

CC1(C)CCC(CN2CCN(c3ccc(C(=O)NS(=O)(=O)c4ccc(NC[C@H]5COCCO5)c([N+](=O)[O-])c4)c(Oc4cnc5[nH]ccc5c4)c3)CC2)=C(c2cc(-c3ccc(F)cc3)cs2)C1 [Example 33, (S)—N-((4-(((1,4-dioxan-2-yl)methyl)amino)-3-nitrophenyl)sulfonyl)-2-((1H-pyrrolo[2,3-b]pyridin-5-yl)oxy)-4-(4-((2-(4-(4-fluorophenyl)thiophen-2-yl)-4,4-dimethylcyclohex-1-en-1-yl)methyl)piperazin-1-yl)benzamide] and CC1(C)CCC(CN2CCN(c3ccc(C(=O)NS(=O)(=O)c4ccc(NC[C@H]5COCCO5)c([N+](=O)[O-])c4)c(Oc4cnc5[nH]ccc5c4)c3)CC2)=C(c2cc(-c3ccc(Cl)cc3)cs2)C1 [Example 38, (S)—N-((4-(((1,4-dioxan-2-yl)methyl)amino)-3-nitrophenyl)sulfonyl)-2-((1H-pyrrolo[2,3-b]pyridin-5-yl)oxy)-4-(4-((2-(4-(4-chlorophenyl)thiophen-2-yl)-4,4-dimethylcyclohex-1-en-1-yl)methyl)piperazin-1-yl)benzamide] are within 1.5-fold of each other in IC50: 33.1 nM for the first, 35.4 nM for the second.

CC1(C)CCC(CN2CCN(c3ccc(C(=O)NS(=O)(=O)c4ccc(NCC5CCOCC5)c([N+](=O)[O-])c4)c(Oc4cnc5[nH]ccc5c4)c3)CC2)=C(c2cc(-c3ccccc3)cs2)C1 [Example 34, 2-((1H-pyrrolo[2,3-b]pyridin-5-yl)oxy)-4-(4-((4,4-dimethyl-2-(4-phenylthiophen-2-yl)cyclohex-1-en-1-yl)methyl)piperazin-1-yl)-N-((3-nitro-4-(((tetrahydro-2H-pyran-4-yl)methyl)amino)phenyl)sulfonyl)benzamide] and CC1(C)CCC(CN2CCN(c3ccc(C(=O)NS(=O)(=O)c4ccc(NCC5CCOCC5)c([N+](=O)[O-])c4)c(Oc4cnc5[nH]ccc5c4)c3)CC2)=C(c2ccsc2-c2ccccc2)C1 [Example 35, 2-((1H-pyrrolo[2,3-b]pyridin-5-yl)oxy)-4-(4-((4,4-dimethyl-2-(2-phenylthiophen-3-yl)cyclohex-1-en-1-yl)methyl)piperazin-1-yl)-N-((3-nitro-4-(((tetrahydro-2H-pyran-4-yl)methyl)amino)phenyl)sulfonyl)benzamide] are within 1.5-fold of each other in IC50: 47.9 nM for the first, 47.6 nM for the second.

CC1(C)CCC(CN2CCN(c3ccc(C(=O)NS(=O)(=O)c4ccc(NC[C@H]5CC[C@@](C)(O)CC5)c([N+](=O)[O-])c4)c(Oc4cnc5[nH]ccc5c4)c3)CC2)=C(c2cc(-c3ccc(F)cc3)cs2)C1 [Example 36, 2-((1H-pyrrolo[2,3-b]pyridin-5-yl)oxy)-4-(4-((2-(4-(4-fluorophenyl)thiophen-2-yl)-4,4-dimethylcyclohex-1-en-1-yl)methyl)piperazin-1-yl)-N-((4-((((1s,4s)-4-hydroxy-4-methylcyclohexyl)methyl)amino)-3-nitrophenyl)sulfonyl)benzamide] and CC1(C)CCC(CN2CCN(c3ccc(C(=O)NS(=O)(=O)c4ccc(NC[C@H]5CC[C@](C)(O)CC5)c([N+](=O)[O-])c4)c(Oc4cnc5[nH]ccc5c4)c3)CC2)=C(c2cc(-c3ccc(F)cc3)cs2)C1 [Example 37, 2-((1H-pyrrolo[2,3-b]pyridin-5-yl)oxy)-4-(4-((2-(4-(4-fluorophenyl)thiophen-2-yl)-4,4-dimethylcyclohex-1-en-1-yl)methyl)piperazin-1-yl)-N-((4-((((1r,4r)-4-hydroxy-4-methylcyclohexyl)methyl)amino)-3-nitrophenyl)sulfonyl)benzamide] are within 1.5-fold of each other in IC50: 46.2 nM for the first, 34.9 nM for the second.

CC(C)c1ccccc1-c1csc(C2=C(CN3CCN(c4ccc(C(=O)NS(=O)(=O)c5ccc(NC[C@H]6COCCO6)c([N+](=O)[O-])c5)c(Oc5cnc6[nH]ccc6c5)c4)CC3)CCC(C)(C)C2)c1 [Example 39, (S)—N-((4-(((1,4-dioxan-2-yl)methyl)amino)-3-nitrophenyl)sulfonyl)-2-((1H-pyrrolo[2,3-b]pyridin-5-yl)oxy)-4-(4-((2-(4-(2-isopropylphenyl)thiophen-2-yl)-4,4-dimethylcyclohex-1-en-1-yl)methyl)piperazin-1-yl)benzamide] was tested, and the IC50 was 36 nM.
